What was measured:
Cytochrome P450 3A4 = Cytochrome P450 3A4 (Homo sapiens, UniProt P08684); experiment: Inhibition of CYP3A4 at 30 uM by FRET assay; type: ADME
[1] = Metabolic stability in rat liver microsomes assessed as half life; type: ADME, Microsome
[2] = target: T1, A disintegrin and metalloproteinase with thrombospondin motifs 4 (Homo sapiens, UniProt O75173); experiment: Inhibition of ADAMTS4 by FRET assay
T1 sequence (O75173 whole entry): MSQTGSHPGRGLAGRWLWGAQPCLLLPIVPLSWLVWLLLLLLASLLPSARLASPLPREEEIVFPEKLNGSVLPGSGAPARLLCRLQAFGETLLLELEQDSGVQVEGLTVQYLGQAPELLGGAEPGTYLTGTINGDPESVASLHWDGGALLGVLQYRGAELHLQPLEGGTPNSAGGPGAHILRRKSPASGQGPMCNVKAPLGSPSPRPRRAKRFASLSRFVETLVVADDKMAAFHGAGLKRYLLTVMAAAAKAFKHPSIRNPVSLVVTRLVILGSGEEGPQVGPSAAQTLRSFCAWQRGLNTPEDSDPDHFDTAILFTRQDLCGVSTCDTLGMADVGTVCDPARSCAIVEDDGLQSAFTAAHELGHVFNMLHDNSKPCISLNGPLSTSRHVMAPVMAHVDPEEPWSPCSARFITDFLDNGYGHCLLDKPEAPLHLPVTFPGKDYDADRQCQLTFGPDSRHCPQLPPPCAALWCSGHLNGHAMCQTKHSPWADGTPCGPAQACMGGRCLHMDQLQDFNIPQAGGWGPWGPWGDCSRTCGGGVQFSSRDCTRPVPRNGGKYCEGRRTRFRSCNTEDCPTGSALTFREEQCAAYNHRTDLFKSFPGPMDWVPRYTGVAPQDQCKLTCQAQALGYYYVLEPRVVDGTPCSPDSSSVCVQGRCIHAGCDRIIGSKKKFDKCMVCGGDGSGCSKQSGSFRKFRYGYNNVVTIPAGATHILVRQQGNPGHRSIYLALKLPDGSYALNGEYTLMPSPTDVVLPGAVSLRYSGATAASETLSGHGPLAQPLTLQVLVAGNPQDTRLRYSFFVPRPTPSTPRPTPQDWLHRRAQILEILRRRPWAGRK

Collagenase 3 = Collagenase 3 (Homo sapiens, UniProt P45452); experiment: Inhibition of MMP13 by FRET assay
[3] = target: Macrophage metalloelastase (Homo sapiens) (UniProt P39900); experiment: Inhibition of MMP12 at […] by FRET assay
Chain of Macrophage metalloelastase (Homo sapiens) (P39900 106-470 limits assumed): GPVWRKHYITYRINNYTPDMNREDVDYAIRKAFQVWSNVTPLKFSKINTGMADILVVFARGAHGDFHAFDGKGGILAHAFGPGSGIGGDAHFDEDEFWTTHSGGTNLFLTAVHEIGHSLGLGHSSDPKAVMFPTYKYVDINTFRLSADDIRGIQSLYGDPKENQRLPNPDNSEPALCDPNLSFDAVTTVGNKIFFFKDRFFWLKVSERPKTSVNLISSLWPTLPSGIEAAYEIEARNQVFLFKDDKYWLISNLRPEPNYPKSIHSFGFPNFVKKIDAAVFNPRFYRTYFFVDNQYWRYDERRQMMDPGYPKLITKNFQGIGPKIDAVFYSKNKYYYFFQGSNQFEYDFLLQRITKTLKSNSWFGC

Chain of Cytochrome P450 3A4 (P08684 whole entry): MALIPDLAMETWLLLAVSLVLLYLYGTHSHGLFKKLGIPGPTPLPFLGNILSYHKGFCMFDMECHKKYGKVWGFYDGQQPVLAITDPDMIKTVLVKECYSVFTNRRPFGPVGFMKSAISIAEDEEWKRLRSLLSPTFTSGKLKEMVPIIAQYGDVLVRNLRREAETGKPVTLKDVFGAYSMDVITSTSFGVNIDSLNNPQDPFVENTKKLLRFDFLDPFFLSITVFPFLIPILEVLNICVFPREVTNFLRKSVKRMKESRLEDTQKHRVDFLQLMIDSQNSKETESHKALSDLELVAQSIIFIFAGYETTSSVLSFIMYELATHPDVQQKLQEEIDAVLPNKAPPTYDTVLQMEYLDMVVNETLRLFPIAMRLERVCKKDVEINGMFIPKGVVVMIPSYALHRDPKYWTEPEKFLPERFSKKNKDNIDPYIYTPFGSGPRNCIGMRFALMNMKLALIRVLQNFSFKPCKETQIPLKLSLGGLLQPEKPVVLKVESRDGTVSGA

Row | Structure (SMILES) | inhibition (INH) (Cytochrome P450 3A4) [%] | other results
1 | O=C(COc1ccccc1)NC(c1ccccc1[N+](=O)[O-])c1cc(Cl)c2cccnc2c1O (configuration not stated) | 38 | half-life [1]: 5 min
2 | Cc1ccc(C(NC(=O)CNc2ccc(Cl)c(C)c2)c2cc(Cl)c3cccnc3c2O)cc1 (configuration not stated) | 12 | –
3 | CN(C)c1cccc(OCC(=O)NC(c2ccccc2Cl)c2cc(Cl)c3cccnc3c2O)c1 (configuration not stated) | 38 | –
4 | O=C(COc1cc(Cl)cc(Cl)c1)NC(c1cccc([N+](=O)[O-])c1)c1cc(Cl)c2cccnc2c1O (configuration not stated) | 20 | –
5 | CN(CC(=O)NC(c1cccc(F)c1)c1cc(Cl)c2cccnc2c1O)c1ccccc1 (configuration not stated) | 41 | –
6 | CC(C)(C)c1ccc(OCC(=O)NC(c2ccccc2Cl)c2cc(Cl)c3cccnc3c2O)cc1 (configuration not stated) | 10 | –
7 | O=C(COc1ccccc1)NC(c1cccc([N+](=O)[O-])c1)c1cc(Cl)c2cccnc2c1O (configuration not stated) | 26 | IC50 [2]: 1.9 µM; IC50 (Collagenase 3): > 200 µM; inhibition [3]: 45%; half-life [1]: 6 min
8 | CC(=O)c1ccc(OCC(=O)NC(c2cccc([N+](=O)[O-])c2)c2cc(Cl)c3cccnc3c2O)cc1 (configuration not stated) | 18 | –
9 | COc1ccc(C(NC(=O)COc2cccc(N(C)C)c2)c2cc(Cl)c3cccnc3c2O)cc1 (configuration not stated) | 56 | –
10 | COc1ccc(C(NC(=O)COc2ccc(NC(C)=O)cc2)c2cc(Cl)c3cccnc3c2O)cc1 (configuration not stated) | 37 | –
11 | COc1ccc(C(NC(=O)COc2ccccc2)c2cc(Cl)c3cccnc3c2O)cc1 (configuration not stated) | 54 | –
12 | Cc1cc(NCC(=O)NC(c2ccccc2Cl)c2cc(Cl)c3cccnc3c2O)ccc1Cl (configuration not stated) | 11 | half-life [1]: 8 min
13 | Cc1ccc(C(NC(=O)COc2ccccc2)c2cc(Cl)c3cccnc3c2O)cc1 (configuration not stated) | 45 | –
14 | Cc1ccc(C(NC(=O)CN(C)Cc2ccccc2)c2cc(Cl)c3cccnc3c2O)cc1 (configuration not stated) | 30 | half-life [1]: 16 min
15 | Cc1ccc(C(NC(=O)COCc2ccccc2)c2cc(Cl)c3cccnc3c2O)cc1 (configuration not stated) | 45 | –
16 | COc1ccc(C(NC(=O)COc2cccnc2)c2cc(Cl)c3cccnc3c2O)cc1 (configuration not stated) | 33 | half-life [1]: 16 min
17 | O=C(COc1ccccc1)NC(c1ccccc1Cl)c1cc(Br)c2cccnc2c1O (configuration not stated) | 33 | –
18 | O=C(CNCc1ccccc1)NC(c1cccc(F)c1)c1cc(Cl)c2cccnc2c1O (configuration not stated) | 32 | –
19 | O=C(COc1ccccc1)NC(c1ccccc1Cl)c1cc([N+](=O)[O-])c2cccnc2c1O (configuration not stated) | 35 | –
20 | CC(=O)c1ccc(NCC(=O)NC(c2ccc(C)cc2)c2cc(Cl)c3cccnc3c2O)cc1 (configuration not stated) | 45 | half-life [1]: 4 min

Row | Structure (SMILES) | inhibition (INH) (Cytochrome P450 3A4) [%] | other results
21 | Cc1cc(NCC(=O)NC(c2cccc(F)c2)c2cc(Cl)c3cccnc3c2O)ccc1Cl (configuration not stated) | 14 | –
22 | O=C(CNCc1ccccc1)NC(c1ccccc1Cl)c1cc(Cl)c2cccnc2c1O (configuration not stated) | 36 | –
23 | N#Cc1ccccc1C(NC(=O)COc1ccccc1)c1cc(Cl)c2cccnc2c1O (configuration not stated) | 26 | –
24 | COc1ccc(C(NC(=O)COc2ccc(C)cc2)c2cc(Cl)c3cccnc3c2O)cc1 (configuration not stated) | 78 | –
25 | Cc1ccc(C(NC(=O)CN(C)c2ccccc2)c2cc(Cl)c3cccnc3c2O)cc1 (configuration not stated) | 20 | half-life [1]: 6 min
26 | CC(=O)Nc1ccc(OCC(=O)NC(c2ccccc2Cl)c2cc(Cl)c3cccnc3c2O)cc1 (configuration not stated) | 4 | –
27 | O=C(COc1ccccc1)NC(c1ccccc1Cl)c1cc(Cl)c2cccnc2c1O (configuration not stated) | 43 | IC50 [2]: 2.4 µM; IC50 (Collagenase 3): > 67 µM; inhibition [3]: 50%
28 | Cc1ccc(C(NC(=O)CNCc2ccccc2)c2cc(Cl)c3cccnc3c2O)cc1 (configuration not stated) | 29 | half-life [1]: 10 min
29 | CN(C)c1cccc(OCC(=O)NC(c2cccc(F)c2)c2cc(Cl)c3cccnc3c2O)c1 (configuration not stated) | 53 | –
30 | CC(=O)Nc1ccc(OCC(=O)NC(c2cccc(F)c2)c2cc(Cl)c3cccnc3c2O)cc1 (configuration not stated) | 31 | –
31 | Cc1ccc(C(NC(=O)CNc2cccc(N(C)C)c2)c2cc(Cl)c3cccnc3c2O)cc1 (configuration not stated) | 37 | –
32 | O=C(COc1ccccc1)NC(c1ccccc1)c1cc([N+](=O)[O-])c2cccnc2c1O (configuration not stated) | 20 | –
33 | O=C(COc1ccccc1)NC(c1ccccc1)c1ccc2cccnc2c1O (configuration not stated) | 56 | –
34 | O=C(COc1ccccc1)NC(c1ccccc1)c1cc(F)c2cccnc2c1O (configuration not stated) | 22 | –
35 | Cc1cc(C(NC(=O)COc2ccccc2)c2ccccc2Cl)c(O)c2ncccc12 (configuration not stated) | 55 | –
36 | O=C(COc1ccccc1)NC(c1ccccc1)c1cc(Cl)c2cccnc2c1O (configuration not stated) | 5 | –
37 | CC(=O)c1ccc(NCC(=O)NC(c2cccc([N+](=O)[O-])c2)c2cc(Cl)c3cccnc3c2O)cc1 (configuration not stated) | 27 | –
38 | COc1ccc(OCC(=O)NC(c2ccc(OC)cc2)c2cc(Cl)c3cccnc3c2O)cc1 (configuration not stated) | 74 | IC50 [2]: > 50 µM; IC50 (Collagenase 3): > 200 µM; inhibition [3]: 37%
39 | O=C(COc1cccnc1)NC(c1cccc([N+](=O)[O-])c1)c1cc(Cl)c2cccnc2c1O (configuration not stated) | 67 | –
40 | O=C(COCc1ccccc1)NC(c1cccc(F)c1)c1cc(Cl)c2cccnc2c1O (configuration not stated) | 46 | half-life [1]: 24 min

Row | Structure (SMILES) | inhibition (INH) (Cytochrome P450 3A4) [%] | other results
41 | O=C(COc1ccccc1)NC(c1ccc(Cl)cc1)c1cc(Cl)c2cccnc2c1O (configuration not stated) | 38 | –
42 | Cc1ccc(C(NC(=O)CNc2ccc(C#N)cc2)c2cc(Cl)c3cccnc3c2O)cc1 (configuration not stated) | 29 | –
43 | O=C(COc1ccccc1)NC(c1cccc(F)c1)c1cc(Cl)c2cccnc2c1O (configuration not stated) | 57 | –
44 | Cc1cc(C(NC(=O)COc2ccccc2)c2cccc([N+](=O)[O-])c2)c(O)c2ncccc12 (configuration not stated) | 33 | half-life [1]: 6 min
45 | O=C(COc1cccnc1)NC(c1cccc(F)c1)c1cc(Cl)c2cccnc2c1O (configuration not stated) | 35 | –
46 | Cc1cc(OCC(=O)NC(c2ccccc2Cl)c2cc(Cl)c3cccnc3c2O)ccc1Cl (configuration not stated) | 30 | –
47 | CN(CC(=O)NC(c1cccc(F)c1)c1cc(Cl)c2cccnc2c1O)Cc1ccccc1 (configuration not stated) | 32 | half-life [1]: 16 min
48 | COc1ccc(C(NC(=O)COc2ccc(Oc3ccccc3)cc2)c2cc(Cl)c3cccnc3c2O)cc1 (configuration not stated) | 21 | –
49 | O=C(COc1ccccc1)NC(c1ccccc1C(F)(F)F)c1cc(Cl)c2cccnc2c1O (configuration not stated) | 37 | –
50 | O=C(COc1ccc(Cl)cc1)NC(c1ccccc1)c1cc(Cl)c2cccnc2c1O (configuration not stated) | 2 | –
51 | O=C(COc1ccccc1)NC(c1cccc([N+](=O)[O-])c1)c1cc(Br)c2cccnc2c1O (configuration not stated) | 38 | –
52 | CC(=O)Nc1ccc(NCC(=O)NC(c2cccc([N+](=O)[O-])c2)c2cc(Cl)c3cccnc3c2O)cc1 (configuration not stated) | 8 | half-life [1]: 30 min
53 | O=C(COc1ccccc1)NC(c1ccc([N+](=O)[O-])cc1)c1cc(Cl)c2cccnc2c1O (configuration not stated) | 13 | –
54 | CN(CC(=O)NC(c1cccc([N+](=O)[O-])c1)c1cc(Cl)c2cccnc2c1O)Cc1ccccc1 (configuration not stated) | 20 | –
55 | Cc1cc(NCC(=O)NC(c2cccc([N+](=O)[O-])c2)c2cc(Cl)c3cccnc3c2O)ccc1Cl (configuration not stated) | 17 | –
56 | O=C(COc1ccccc1)NC(c1ccccc1F)c1cc(Cl)c2cccnc2c1O (configuration not stated) | 24 | –
57 | CN(CC(=O)NC(c1ccccc1Cl)c1cc(Cl)c2cccnc2c1O)Cc1ccccc1 (configuration not stated) | 16 | half-life [1]: 5 min
58 | Cc1ccc(OCC(=O)NC(c2ccccc2)c2cc(Cl)c3cccnc3c2O)cc1 (configuration not stated) | 69 | –
59 | CN(CC(=O)NC(c1ccccc1Cl)c1cc(Cl)c2cccnc2c1O)c1ccccc1 (configuration not stated) | 34 | –
60 | Cc1ccccc1C(NC(=O)COc1ccccc1)c1cc(Cl)c2cccnc2c1O (configuration not stated) | 10 | –

From ChEMBL document CHEMBL1141004, “N-((8-hydroxy-5-substituted-quinolin-7-yl)(phenyl)methyl)-2-phenyloxy/amino-acetamide inhibitors of ADAMTS-5 (Aggrecanase-2)” (Bioorg Med Chem Lett, 2008)
